65 compounds from a melting point compilation (Tetko et al.; mined from patent text by program, amines drawn as free bases though some values may be those of a salt) can be followed below.

One may read the melting point as the temperature of the solid-liquid transition. On to `CCCc1c(OCCCCCC(=O)NCCSc2ccncc2)ccc(C(C)=O)c1O`, for which the melting point was 63 to 65 °C. Take `COc1c(C(=O)O)cc([N+](=O)[O-])c2ccccc12`: the melting point lay within 102 to 104 °C.

Take `CC(=O)Oc1cn(C(C)=O)c2ccc(F)c(Cl)c12`: the melting point fell in the range of 168 to 169 °C. Then `c1ccc2c(c1)CCc1c(CN3CCN(c4cc5ccccc5cn4)CC3)n[nH]c1-2`, with 228 to 230 °C; and `CS(=O)(=O)c1cccc(NC(=O)c2cnn3c(C(F)F)cc(-c4ccc(C(F)(F)F)c(F)c4)nc23)c1`, with 238 °C. `Cc1cc(C)cc(-c2c(-c3ccncc3)sc3nc(=O)cc(N)n23)c1` displayed a melting point of 275 to 278 °C.

Turning to `Cc1cc(NCc2ccc3c(c2)OCO3)nc(SCC#N)n1`, the melting point lay in the range of 115 to 118 °C.

Consider `COC(=O)c1ccc(-c2ccc3c(c2)C=C(C(=O)Nc2ccc(CN(C)C4CCOCC4)cc2)CCC3)cc1`, for which the melting point lay in the range of 176 to 183 °C.

Compound `Cc1c(C(=O)c2cccc(Cl)c2Cl)c2cccc(Br)c2n1CCCCl` yielded a melting point of 139 °C.

The compound `CC(=O)NC(=S)NCC1CC2c3cccc4[nH]cc(c34)CC2N(C)C1` (stereo not given) registered a melting point of 204 to 205 °C. In the case of `Cc1ccc2c(c1)C=Cc1cc(C)ccc1C2c1cn(Cc2nc(C(=O)N[C@@H](CC(=O)O)C(=O)O)cs2)c(=O)[nH]c1=S` it was 175 °C.

Compound `CNS(=O)(=O)c1cc2c(c(C(=O)OC)c1)OCCO2` yielded a melting point of 159 to 160 °C. In the case of `Cc1ccc2c(-c3ccc(F)cc3)nc(=O)n(C(C)C)c2c1` it was 172 to 174 °C; in that of `Cc1cc(C)nc(C(N)=NO)n1`, 209 °C; in that of `Cn1cnnc1NCCCOc1cccc(CN2CCCCC2)c1`, 118 to 119 °C. `Cc1ccccc1OCC(O)CN` (stereo not given): the melting point came to 64 °C.

As for `O=C(Nc1ccc(C(=O)NCCCN2CCOCC2)cc1O)C(=O)Nc1cc(Cl)cc(Cl)c1O`, the melting point came to 227 °C.

On to `CC(C)(C)OC(=O)N1CCC(c2cnc3oc(-c4ccc(C(F)(F)F)cc4)nc3c2)CC1`, for which the melting point fell in the range of 184 to 188 °C. The compound `CCn1ncc2c3onc(-c4cccc(C)c4)c3cnc21` had a melting point of 122 to 123 °C.

On to `COc1ccnc(N2CCN(Cc3ccc(C(C)(C)NC(C)=O)cc3)CC2)n1`, for which the melting point lay within 160 to 162 °C. In the case of `Clc1ccc2oc(Cl)nc2c1` it was 46 to 48 °C; in that of `CCN1CCCC1CNC(=O)c1c(O)c(OC)c2occc2c1OC` (stereo not given), 86 °C; in that of `Cc1cc(C)c2c(-c3cc(C(C)(C)C)c(O)c(C(C)(C)C)c3)n[nH]c2n1`, 257 to 258 °C. Then `CCCOCC1(C)CCCOc2cc(C#Cc3ccc(C(=O)O)cc3)ccc21` (stereo not given), with 148 to 149 °C; and `CCCCc1nc2ccc(O)cc2c(=O)n1Cc1ccc(-c2ccccc2-c2nnn[nH]2)cc1`, with 212 to 214 °C.

Consider `CCOC(=O)c1ncc2[nH]c3ccc(C(=S)N4CCCCC4)cc3c2c1C`, for which the melting point lay within 225 to 230 °C. Consider `CC1=C(c2ccc(Cl)cc2)n2ncc(C#N)c2N(C(=O)CCl)C1`, for which the melting point was 138 to 140 °C. In the case of `CCOC(=O)Oc1ccc(C(=O)Oc2ccc(C#N)cc2)cc1` it was 145 °C. The compound `Cc1ccc(-c2csc3nc(C)c(CCCl)c(=O)n23)cc1` registered a melting point of 152 to 165 °C. For the compound `CCNC(=O)c1cnn(C)c1`, the melting point was in the range of 103 to 106 °C. `Nc1cnc2c(c1)[nH]c(=O)n2-c1ccccc1F` had a melting point of 220 to 221 °C. In the case of `CCC1CC2=C(CCC(=O)C2)C2CCC3(C)C(=CCC3O)C12` (stereo not given) it was 102 to 105 °C; in that of `Cc1ccc(-c2nc(N)ncc2-c2ccc(=O)[nH]n2)cc1`, 249 °C; in that of `NS(=O)(=O)c1ccc(NC(=O)C(=O)N2CCC(Cc3ccccc3)CC2)cc1`, 184 to 187 °C. The compound `CSc1nc(C)n(CC(=O)O)c(=O)c1C#N` had a melting point of 236 to 238 °C. In the case of `CCCCNC(=O)c1c(N)cc(Cl)cc1Cl` it was 92 to 98 °C; in that of `ClCSc1nc(Cl)c(Cl)nc1Cl`, 68 to 70 °C. Then `CCOC(=O)CCc1csc2c(C(=O)OCC)c(=O)c3cc(F)c(Cl)cc3n12`, with 200 °C; and `C=CCSc1nnc(OC)c2ccccc12`, with 32 to 34 °C; and `O=C1Cc2cccc(-c3ccccc3)c2N1`, with 167 to 169 °C. Compound `CON1CCC2(CC1)OC(=O)C(c1cc(C)ccc1C)=C2O` returned a melting point of 205 to 208 °C. On to `Cc1ccc(Cl)c(Nc2ccccc2-c2nnco2)c1Cl`, for which the melting point lay within 180 to 181 °C. Then `CC(O)C(CO)(Cc1cc(C(C)(C)C)c(O)c(C(C)(C)C)c1)Cc1cc(C(C)(C)C)c(O)c(C(C)(C)C)c1` (stereo not given), with 145 to 150 °C; and `O=C1CC2O/C(=C/C3(C(=O)OCc4ccccc4)C=CC=CC3)CN12` (stereo not given), with 120 to 121 °C; and `OC1CSC(Oc2ccc(-c3cncnc3)nc2Cl)C(O)C1O` (stereo not given), with 100 °C.

Compound `O=C1CNc2c(Cl)cccc2N1` gave a melting point of 191 to 193 °C. Take `Cc1c(C)c2c(c(C)c1NC(=O)C(O)C(C)(C)C)C(c1ccc(C(C)C)cc1)CO2` (stereo not given): the melting point lay in the range of 165 to 166 °C. Take `O=C(CCCl)c1ccc2[nH]c3ccccc3c2c1`: the melting point is 148 to 151 °C. Then `N=C(NO)c1ccc(-c2ccc(-c3nc4cc(C(=N)NO)ccc4[nH]3)cc2)c(OCc2ccccc2)c1`, with 250 to 253 °C. In the case of `O[C@@H](COc1cccc(-c2noc3ccsc23)c1)CN1CCN(c2n[nH]c3cc(F)ccc23)CC1` it was 97 to 99 °C. Then `COc1cc2c(s1)c(=O)c(SC)cn2C`, with 185 to 187 °C.

`CC(C)n1nc(-c2sc(C(=O)NCc3ccncc3)nc2-c2ccc(F)cc2)ccc1=O`: the melting point fell in the range of 155 to 157 °C. Turning to `Nc1ccc(S(=O)(=O)N2CCCC(c3ccc(Cl)c(C(F)(F)F)c3)=N2)cc1`, the melting point lay within 205 to 206 °C. In the case of `Cc1nc2cc(C(F)(F)F)ccc2n1-c1ccc(OC(C)CCC(=O)O)cc1` (stereo not given) it was 67 to 68 °C. Then `O=C(c1cccs1)c1cnn2c(-c3cccc(OC4CCCC4)c3)ccnc12`, with 135 to 138 °C. In the case of `O=C(c1ccc(F)cc1)N1CCC[C@H](c2nc(-c3ccncc3)no2)C1` it was 113 to 115 °C; in that of `CC(C)(C)c1cc(C=O)cc(I)c1O`, 124 °C; in that of `CCOc1nc2cc(C)nn2c2ccncc12`, 156 °C. `COC(=O)/C=C/C(=O)OCC(=O)N1CCOCC1` registered a melting point of 124 to 126 °C. The compound `O=C(O)c1cccc2cc(Oc3c(Cl)cc(NS(=O)(=O)c4ccc(Cl)cc4Cl)cc3Cl)cnc12` returned a melting point of 263 to 266 °C. Then `CCNC(=O)c1ccc(N2CCNCC2)c(F)c1`, with 142 to 145 °C. In the case of `O=C1C(Cl)=C(c2ccccc2)C(=O)N1c1cccc(Cl)c1`, the melting point was in the range of 67 to 68 °C.

`CCOC(=O)C1=C(C)NC(CCN(C)C)=C(C(=O)OCC)C1c1ccccc1/C=C(\C)C(=O)OCC` (stereo not given): the melting point stood at 109 °C.

`CC(=O)OC1CSC(Oc2ccnc(-c3cccnc3)c2)C(OC(C)=O)C1OC(C)=O` (stereo not given) returned a melting point of 185 °C. Regarding `CC(=O)c1cnc2c(NC(=O)c3c(Cl)cccc3Cl)cccc2c1`, the melting point fell in the range of 243 to 245 °C.
